Results as given in ChEMBL document CHEMBL1255169, “Synthesis, structure-affinity relationships, and radiolabeling of selective high-affinity 5-HT4 receptor ligands as prospective imaging probes for positron emission tomography” (J Med Chem, 2010).

Experiments:
[1] = molecular target: Sodium-dependent noradrenaline transporter (Homo sapiens, UniProt P23975); experiment: Binding affinity to human NET
[2] = molecular target: Delta-type opioid receptor (Homo sapiens, UniProt P41143); experiment: Binding affinity to human delta opioid receptor
D(1A) dopamine receptor = D(1A) dopamine receptor (Rattus norvegicus, UniProt P18901); experiment: Binding affinity to rat dopamine D1 receptor
[3] = molecular target: T1, 5-hydroxytryptamine receptor 2C (Homo sapiens, UniProt P28335); experiment: Binding affinity to human 5-HT2C receptor
T1 sequence (P28335 whole entry): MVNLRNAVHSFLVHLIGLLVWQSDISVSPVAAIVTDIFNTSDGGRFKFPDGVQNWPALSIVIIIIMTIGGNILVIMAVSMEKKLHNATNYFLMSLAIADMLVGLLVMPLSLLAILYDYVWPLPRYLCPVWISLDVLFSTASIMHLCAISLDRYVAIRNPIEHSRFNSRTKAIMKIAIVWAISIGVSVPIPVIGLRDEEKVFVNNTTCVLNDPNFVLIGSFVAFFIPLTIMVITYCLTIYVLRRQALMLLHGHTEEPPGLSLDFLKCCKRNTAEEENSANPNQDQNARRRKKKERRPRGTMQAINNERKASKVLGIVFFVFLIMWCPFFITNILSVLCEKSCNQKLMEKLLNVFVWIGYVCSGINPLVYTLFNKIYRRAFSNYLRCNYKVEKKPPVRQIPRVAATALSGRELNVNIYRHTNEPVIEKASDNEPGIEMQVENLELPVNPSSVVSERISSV

[4] = molecular target: Sigma non-opioid intracellular receptor 1 (Rattus norvegicus, UniProt Q9R0C9); experiment: Binding affinity to rat sigma 1 receptor
[5] = molecular target: 5-hydroxytryptamine receptor 2B (Homo sapiens, UniProt P41595); experiment: Binding affinity to human 5-HT2B receptor
[6] = molecular target: T2, Alpha-2C adrenergic receptor (Homo sapiens, UniProt P18825); experiment: Binding affinity to human adrenergic Alpha-2C receptor
T2 sequence (P18825 whole entry): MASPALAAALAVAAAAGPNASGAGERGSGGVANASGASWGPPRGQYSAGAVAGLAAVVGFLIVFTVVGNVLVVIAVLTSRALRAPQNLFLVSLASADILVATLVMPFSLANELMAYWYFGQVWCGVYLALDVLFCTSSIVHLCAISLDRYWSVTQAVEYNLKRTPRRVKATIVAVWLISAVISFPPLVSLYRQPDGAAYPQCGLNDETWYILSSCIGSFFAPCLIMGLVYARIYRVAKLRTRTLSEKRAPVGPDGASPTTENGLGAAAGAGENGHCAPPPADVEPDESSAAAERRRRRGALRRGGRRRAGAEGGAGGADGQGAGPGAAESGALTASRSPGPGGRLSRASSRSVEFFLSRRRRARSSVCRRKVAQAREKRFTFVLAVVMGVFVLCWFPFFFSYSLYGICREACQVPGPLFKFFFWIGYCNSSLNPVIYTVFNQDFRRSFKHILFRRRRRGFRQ

[7] = molecular target: GABA-A receptor; agonist GABA site; experiment: Binding affinity to human GABAA receptor; type: protein-complex assay
Histamine H2 receptor = Histamine H2 receptor (Cavia porcellus, UniProt P47747); experiment: Binding affinity to guinea pig histamine H2 receptor
[8] = molecular target: 5-hydroxytryptamine receptor 6 (Homo sapiens, UniProt P50406); experiment: Binding affinity to human 5-HT6 receptor
[9] = molecular target: Muscarinic acetylcholine receptor M1 (Homo sapiens, UniProt P11229); experiment: Binding affinity to human muscarinic M1 receptor
[10] = molecular target: Beta-3 adrenergic receptor (Rattus norvegicus, UniProt P26255); experiment: Binding affinity to rat adrenergic beta3 receptor
[11] = molecular target: Alpha-1D adrenergic receptor (Homo sapiens, UniProt P25100); experiment: Binding affinity to human adrenergic Alpha-1D receptor
[12] = molecular target: 5-hydroxytryptamine receptor 7 (Homo sapiens, UniProt P34969); experiment: Binding affinity to human 5-HT7 receptor
[13] = molecular target: Sodium-dependent serotonin transporter (Homo sapiens, UniProt P31645); experiment: Binding affinity to human SERT
[14] = molecular target: Muscarinic acetylcholine receptor M5 (Homo sapiens, UniProt P08912); experiment: Binding affinity to human muscarinic M5 receptor
[15] = molecular target: Beta-1 adrenergic receptor (Rattus norvegicus, UniProt P18090); experiment: Binding affinity to rat adrenergic beta-1 receptor
[16] = molecular target: Sodium-dependent dopamine transporter (Homo sapiens, UniProt Q01959); experiment: Binding affinity to human DAT
[17] = molecular target: 5-hydroxytryptamine receptor 3A (Homo sapiens, UniProt P46098); experiment: Binding affinity to human 5-HT3 receptor
[18] = molecular target: 5-hydroxytryptamine receptor 1B (Homo sapiens, UniProt P28222); experiment: Binding affinity to human 5-HT1B receptor
[19] = molecular target: 5-hydroxytryptamine receptor 2A (Homo sapiens, UniProt P28223); experiment: Binding affinity to human 5-HT2A receptor
D(4) dopamine receptor = molecular target: T3, D(4) dopamine receptor (Rattus norvegicus, UniProt P30729); experiment: Binding affinity to rat dopamine D4 receptor
T3 sequence (P30729 whole entry): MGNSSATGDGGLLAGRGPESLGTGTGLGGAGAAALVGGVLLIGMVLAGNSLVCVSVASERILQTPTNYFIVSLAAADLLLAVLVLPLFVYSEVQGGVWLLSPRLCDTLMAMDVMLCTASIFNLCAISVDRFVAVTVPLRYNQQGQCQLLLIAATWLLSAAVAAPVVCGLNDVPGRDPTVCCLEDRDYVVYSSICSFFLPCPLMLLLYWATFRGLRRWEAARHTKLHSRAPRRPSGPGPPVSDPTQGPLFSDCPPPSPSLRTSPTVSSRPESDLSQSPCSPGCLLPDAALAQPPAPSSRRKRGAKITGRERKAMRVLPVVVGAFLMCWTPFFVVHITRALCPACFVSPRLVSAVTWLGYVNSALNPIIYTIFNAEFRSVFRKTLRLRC

[20] = molecular target: 5-hydroxytryptamine receptor 1D (Homo sapiens, UniProt P28221); experiment: Binding affinity to human 5-HT1D receptor
[21] = molecular target: 5-hydroxytryptamine receptor 4 (Homo sapiens, UniProt Q13639); experiment: Displacement of [3H]GR113808 from human recombinant 5HT4 receptor expressed in HEK293 cells; type: cell-based
[22] = molecular target: Muscarinic acetylcholine receptor M4 (Homo sapiens, UniProt P08173); experiment: Binding affinity to human muscarinic M4 receptor
Histamine H4 receptor = Histamine H4 receptor (Cavia porcellus, UniProt Q91ZY3); experiment: Binding affinity to guinea pig histamine H4 receptor
Sequence of Histamine H4 receptor (Q91ZY3 whole entry): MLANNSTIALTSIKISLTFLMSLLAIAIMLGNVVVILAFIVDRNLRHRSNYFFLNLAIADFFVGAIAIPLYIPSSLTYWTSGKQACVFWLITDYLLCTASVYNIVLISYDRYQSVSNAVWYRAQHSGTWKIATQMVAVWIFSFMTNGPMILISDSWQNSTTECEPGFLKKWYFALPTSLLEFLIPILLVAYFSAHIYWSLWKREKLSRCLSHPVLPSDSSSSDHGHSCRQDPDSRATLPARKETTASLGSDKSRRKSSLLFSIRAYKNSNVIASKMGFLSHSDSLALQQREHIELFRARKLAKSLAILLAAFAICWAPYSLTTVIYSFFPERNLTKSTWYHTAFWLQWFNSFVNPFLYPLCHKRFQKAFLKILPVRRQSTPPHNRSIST

Sequence of Sodium-dependent noradrenaline transporter (P23975 whole entry): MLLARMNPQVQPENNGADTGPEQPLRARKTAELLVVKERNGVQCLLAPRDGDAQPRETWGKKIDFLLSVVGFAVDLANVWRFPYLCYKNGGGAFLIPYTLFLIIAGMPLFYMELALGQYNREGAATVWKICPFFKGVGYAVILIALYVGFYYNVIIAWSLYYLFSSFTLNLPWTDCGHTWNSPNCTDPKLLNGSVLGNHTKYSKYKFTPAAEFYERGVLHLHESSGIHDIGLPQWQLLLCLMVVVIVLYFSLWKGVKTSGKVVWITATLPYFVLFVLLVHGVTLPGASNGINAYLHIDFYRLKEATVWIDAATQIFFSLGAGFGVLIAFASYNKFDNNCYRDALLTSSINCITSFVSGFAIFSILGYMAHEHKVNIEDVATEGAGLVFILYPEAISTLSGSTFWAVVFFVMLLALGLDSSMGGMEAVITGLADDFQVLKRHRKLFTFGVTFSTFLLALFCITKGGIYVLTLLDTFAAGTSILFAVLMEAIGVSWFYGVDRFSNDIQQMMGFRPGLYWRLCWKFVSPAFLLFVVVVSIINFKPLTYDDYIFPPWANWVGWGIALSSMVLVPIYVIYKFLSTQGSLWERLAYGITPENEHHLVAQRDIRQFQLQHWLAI
Sequence of 5-hydroxytryptamine receptor 4 (Q13639 whole entry): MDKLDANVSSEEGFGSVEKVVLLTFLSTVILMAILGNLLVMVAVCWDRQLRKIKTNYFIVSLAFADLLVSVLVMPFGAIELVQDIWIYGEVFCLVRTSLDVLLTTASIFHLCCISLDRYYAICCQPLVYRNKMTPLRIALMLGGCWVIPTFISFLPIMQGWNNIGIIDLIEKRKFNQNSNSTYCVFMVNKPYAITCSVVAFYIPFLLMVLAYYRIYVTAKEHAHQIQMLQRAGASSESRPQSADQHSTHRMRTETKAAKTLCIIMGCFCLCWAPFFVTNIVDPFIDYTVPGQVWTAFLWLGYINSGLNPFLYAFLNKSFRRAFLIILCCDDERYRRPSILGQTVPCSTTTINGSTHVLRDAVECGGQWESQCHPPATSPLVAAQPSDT
Sequence of Sigma non-opioid intracellular receptor 1 (Q9R0C9 whole entry): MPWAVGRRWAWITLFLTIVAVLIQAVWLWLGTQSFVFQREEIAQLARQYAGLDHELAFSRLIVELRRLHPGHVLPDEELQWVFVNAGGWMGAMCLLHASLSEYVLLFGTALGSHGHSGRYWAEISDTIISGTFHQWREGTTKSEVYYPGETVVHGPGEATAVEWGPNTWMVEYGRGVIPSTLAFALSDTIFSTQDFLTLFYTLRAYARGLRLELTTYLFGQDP
Sequence of Sodium-dependent serotonin transporter (P31645 whole entry): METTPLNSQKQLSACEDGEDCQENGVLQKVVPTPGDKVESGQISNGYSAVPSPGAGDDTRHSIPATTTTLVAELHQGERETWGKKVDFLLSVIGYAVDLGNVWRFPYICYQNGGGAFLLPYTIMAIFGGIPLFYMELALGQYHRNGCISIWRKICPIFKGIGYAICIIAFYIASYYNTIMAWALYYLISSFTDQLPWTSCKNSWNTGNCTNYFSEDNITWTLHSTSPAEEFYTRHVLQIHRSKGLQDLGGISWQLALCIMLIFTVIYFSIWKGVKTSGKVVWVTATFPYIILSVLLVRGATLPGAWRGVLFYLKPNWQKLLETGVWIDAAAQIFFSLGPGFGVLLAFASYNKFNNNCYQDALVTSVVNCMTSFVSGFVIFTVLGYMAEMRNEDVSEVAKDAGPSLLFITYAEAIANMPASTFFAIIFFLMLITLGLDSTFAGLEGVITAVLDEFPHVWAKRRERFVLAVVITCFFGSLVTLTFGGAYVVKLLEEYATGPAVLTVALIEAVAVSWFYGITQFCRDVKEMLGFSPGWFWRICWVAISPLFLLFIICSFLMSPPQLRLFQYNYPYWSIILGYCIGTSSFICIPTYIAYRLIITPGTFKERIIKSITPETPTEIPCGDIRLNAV
Sequence of Delta-type opioid receptor (P41143 whole entry): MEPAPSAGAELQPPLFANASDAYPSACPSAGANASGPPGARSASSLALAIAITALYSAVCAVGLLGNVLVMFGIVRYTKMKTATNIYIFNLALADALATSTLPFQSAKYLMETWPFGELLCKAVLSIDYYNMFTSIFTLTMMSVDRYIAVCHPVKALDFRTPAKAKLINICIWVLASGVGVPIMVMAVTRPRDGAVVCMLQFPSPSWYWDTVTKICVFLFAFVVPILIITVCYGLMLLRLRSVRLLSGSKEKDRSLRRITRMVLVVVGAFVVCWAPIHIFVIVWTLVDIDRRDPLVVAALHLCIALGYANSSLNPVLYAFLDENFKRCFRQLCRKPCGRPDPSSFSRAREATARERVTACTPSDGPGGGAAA
Sequence of Beta-3 adrenergic receptor (P26255 whole entry): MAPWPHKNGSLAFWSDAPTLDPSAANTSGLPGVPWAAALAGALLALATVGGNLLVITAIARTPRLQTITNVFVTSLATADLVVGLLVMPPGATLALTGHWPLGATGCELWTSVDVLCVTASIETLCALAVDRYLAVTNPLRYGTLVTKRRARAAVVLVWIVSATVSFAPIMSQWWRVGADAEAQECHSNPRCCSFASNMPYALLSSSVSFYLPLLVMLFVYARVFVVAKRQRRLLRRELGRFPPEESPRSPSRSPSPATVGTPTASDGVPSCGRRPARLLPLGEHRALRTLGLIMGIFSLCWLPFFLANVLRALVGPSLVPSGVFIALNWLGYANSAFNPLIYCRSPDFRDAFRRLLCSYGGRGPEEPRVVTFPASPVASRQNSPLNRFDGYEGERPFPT
Sequence of D(1A) dopamine receptor (P18901 whole entry): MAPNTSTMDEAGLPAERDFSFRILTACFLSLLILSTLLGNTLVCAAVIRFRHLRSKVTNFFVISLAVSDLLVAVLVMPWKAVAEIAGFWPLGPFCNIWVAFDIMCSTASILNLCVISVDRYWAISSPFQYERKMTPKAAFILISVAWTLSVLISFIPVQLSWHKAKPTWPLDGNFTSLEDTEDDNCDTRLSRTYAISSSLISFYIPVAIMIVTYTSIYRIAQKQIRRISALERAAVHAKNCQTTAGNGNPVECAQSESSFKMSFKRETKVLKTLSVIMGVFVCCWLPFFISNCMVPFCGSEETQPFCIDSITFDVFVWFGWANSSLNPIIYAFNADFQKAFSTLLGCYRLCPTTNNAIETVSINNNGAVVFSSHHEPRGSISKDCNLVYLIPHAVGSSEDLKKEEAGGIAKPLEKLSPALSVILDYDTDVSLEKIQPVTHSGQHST
Sequence of Sodium-dependent dopamine transporter (Q01959 whole entry): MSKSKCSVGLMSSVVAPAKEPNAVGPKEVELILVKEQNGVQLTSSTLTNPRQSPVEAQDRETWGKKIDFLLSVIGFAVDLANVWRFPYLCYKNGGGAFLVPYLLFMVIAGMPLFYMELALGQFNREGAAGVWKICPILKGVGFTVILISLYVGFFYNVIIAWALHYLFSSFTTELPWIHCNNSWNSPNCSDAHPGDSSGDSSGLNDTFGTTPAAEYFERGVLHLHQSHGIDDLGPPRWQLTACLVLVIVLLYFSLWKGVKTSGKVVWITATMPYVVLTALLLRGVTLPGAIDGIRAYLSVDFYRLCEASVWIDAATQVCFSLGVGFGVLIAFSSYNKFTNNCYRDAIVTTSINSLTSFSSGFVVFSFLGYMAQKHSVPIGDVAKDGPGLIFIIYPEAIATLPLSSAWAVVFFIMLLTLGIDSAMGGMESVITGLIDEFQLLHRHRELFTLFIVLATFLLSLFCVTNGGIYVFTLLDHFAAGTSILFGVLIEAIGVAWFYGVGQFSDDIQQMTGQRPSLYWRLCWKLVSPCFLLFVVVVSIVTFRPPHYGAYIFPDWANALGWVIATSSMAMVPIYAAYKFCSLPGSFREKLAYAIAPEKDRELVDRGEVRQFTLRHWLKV
Sequence of Muscarinic acetylcholine receptor M5 (P08912 whole entry): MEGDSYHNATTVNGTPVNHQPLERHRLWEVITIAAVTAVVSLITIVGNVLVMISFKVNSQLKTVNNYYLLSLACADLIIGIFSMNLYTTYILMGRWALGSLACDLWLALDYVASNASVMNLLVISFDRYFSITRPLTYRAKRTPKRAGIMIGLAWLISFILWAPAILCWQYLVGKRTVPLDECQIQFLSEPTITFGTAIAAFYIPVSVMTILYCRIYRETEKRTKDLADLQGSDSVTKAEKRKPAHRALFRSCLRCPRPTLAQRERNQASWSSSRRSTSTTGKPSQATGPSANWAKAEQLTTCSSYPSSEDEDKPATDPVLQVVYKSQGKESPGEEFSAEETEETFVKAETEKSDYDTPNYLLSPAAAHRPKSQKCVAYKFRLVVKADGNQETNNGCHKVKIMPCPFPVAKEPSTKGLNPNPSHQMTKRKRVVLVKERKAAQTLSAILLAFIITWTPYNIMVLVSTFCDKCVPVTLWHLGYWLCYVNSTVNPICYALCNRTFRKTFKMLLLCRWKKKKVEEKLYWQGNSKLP

SMILES	Ki [1] [µM]	Ki [2] [µM]	Ki (D(1A) dopamine receptor) [µM]	Ki [3] [µM]	Ki [4] [µM]	Ki [5] [µM]	Ki [6] [µM]	Ki [7] [µM]	Ki (Histamine H2 receptor) [µM]	Ki [8] [µM]	Ki [9] [µM]	Ki [10] [µM]	Ki [11] [µM]	Ki [12] [µM]	Ki [13] [µM]	Ki [14] [µM]	Ki [15] [µM]	Ki [16] [µM]	Ki [17] [µM]	Ki [18] [µM]	also measured
CCCCN1CCC(COC(=O)c2ccc(N)c(OC)c2)CC1	> 10	> 10	> 10	> 10	0.211	2.86	0.989	> 10	> 10	> 10	> 10	> 10	> 10	> 10	> 10	4.06	4.41	> 10	3.51	> 10	Ki [19]: > 10 µM; Ki (D(4) dopamine receptor): 1.27 µM; Ki [20]: 5.69 µM; Ki [21]: 0.0024 µM; Ki [22]: 2.58 µM; Ki (Histamine H4 receptor): > 10 µM
CCCCN1CCC(COC(=O)c2cc(Cl)c(NC)c3c2OCCO3)CC1	3.23	> 10	2.29	0.685	0.06	0.066	0.556	> 10	> 10	0.489	> 10	> 10	2.28	5.7	9.01	0.972	> 10	2.02	1.07	0.82	Ki [19]: 1.78 µM; Ki (D(4) dopamine receptor): 0.043 µM; Ki [20]: 1.3 µM; Ki [21]: 0.002 µM; Ki [22]: 0.76 µM; Ki (Histamine H4 receptor): > 10 µM
